According to the supplement of paper PMC10307832:

Legend:
Test in all cases: relative viability (nuclei count vs DMSO), 5 days (fraction); higher = more cells survive
MK-2206 + Foretinib = compound: NC1(c2ccc(-c3nc4ccn5c(=O)[nH]nc5c4cc3-c3ccccc3)cc2)CCC1 [MK-2206] + COc1cc2c(Oc3ccc(NC(=O)C4(C(=O)Nc5ccc(F)cc5)CC4)cc3F)ccnc2cc1OCCCN1CCOCC1 [Foretinib] (partner 0.25 µM)
Outline: (§1)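 After 5 days of treatment, lung cancer cells in 1536-well plates were fixed and stained in a single step (final 0.05% Triton X-100, 1% formaldehyde, 1 ug/ml Hoechst) and their nuclei counted on 4× images. Treatment had been applied by pin tool the day after seeding as one drug alone or as a fixed anchor-drug dose with five library-drug doses (not always all listed) in √10 steps. Relative viability is the nuclei count of treated wells divided by that of vehicle wells, and values are medians of duplicate plates.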

Pictilisib + Dasatinib = compound: CS(=O)(=O)N1CCN(Cc2cc3nc(-c4cccc5[nH]ncc45)nc(N4CCOCC4)c3s2)CC1 [Pictilisib] + Cc1nc(Nc2ncc(C(=O)Nc3c(C)cccc3Cl)s2)cc(N2CCN(CCO)CC2)n1 [Dasatinib] (partner 0.075 µM)
Outline: as §1

MK-2206 + Vorinostat = compound: NC1(c2ccc(-c3nc4ccn5c(=O)[nH]nc5c4cc3-c3ccccc3)cc2)CCC1 [MK-2206] + O=C(CCCCCCC(=O)Nc1ccccc1)NO [Vorinostat] (partner 1 µM)
Outline: as §1

MK-2206 + Tozasertib = compound: NC1(c2ccc(-c3nc4ccn5c(=O)[nH]nc5c4cc3-c3ccccc3)cc2)CCC1 [MK-2206] + Cc1cc(Nc2cc(N3CCN(C)CC3)nc(Sc3ccc(NC(=O)C4CC4)cc3)n2)n[nH]1 [Tozasertib] (partner 0.1 µM)
Outline: as §1

Pictilisib + Alpelisib = compound: CS(=O)(=O)N1CCN(Cc2cc3nc(-c4cccc5[nH]ncc45)nc(N4CCOCC4)c3s2)CC1 [Pictilisib] + Cc1nc(NC(=O)N2CCC[C@H]2C(N)=O)sc1-c1ccnc(C(C)(C)C(F)(F)F)c1 [Alpelisib] (partner 2 µM)
Outline: as §1

Cell Line	relative viability (MK-2206 + Foretinib; first compound 0.01 µM)	relative viability (MK-2206 + Foretinib; first compound 0.03162 µM)	relative viability (MK-2206 + Foretinib; first compound 0.3162 µM)	relative viability (MK-2206 + Foretinib; first compound 1 µM)	relative viability (Pictilisib + Dasatinib; first compound 0.02 µM)	relative viability (Pictilisib + Dasatinib; first compound 0.06325 µM)	relative viability (Pictilisib + Dasatinib; first compound 0.6325 µM)	relative viability (Pictilisib + Dasatinib; first compound 2 µM)	relative viability (MK-2206 + Vorinostat; first compound 0.01 µM)	relative viability (MK-2206 + Vorinostat; first compound 0.03162 µM)	relative viability (MK-2206 + Vorinostat; first compound 0.3162 µM)	relative viability (MK-2206 + Vorinostat; first compound 1 µM)	relative viability (MK-2206 + Tozasertib; first compound 0.01 µM)	relative viability (MK-2206 + Tozasertib; first compound 0.03162 µM)	relative viability (MK-2206 + Tozasertib; first compound 0.3162 µM)	relative viability (MK-2206 + Tozasertib; first compound 1 µM)	relative viability (Pictilisib + Alpelisib; first compound 0.02 µM)	relative viability (Pictilisib + Alpelisib; first compound 0.06325 µM)	relative viability (Pictilisib + Alpelisib; first compound 0.6325 µM)	relative viability (Pictilisib + Alpelisib; first compound 2 µM)
NCI-H1944	0.889	1	0.887	0.829	0.231	0.186	0.164	0.173	0.536	0.547	0.556	0.433	0.249	0.244	0.251	0.24	0.817	0.776	0.732	0.472
NCI-H1651	0.724	0.658	0.834	0.733	0.35	0.387	0.358	0.201	0.568	0.583	0.597	0.461	0.623	0.667	0.665	0.59	0.969	0.906	0.765	0.516
EBC-1	0.0881	0.12	0.117	0.106	–	–	–	–	–	–	–	–	–	–	–	–	0.904	0.836	0.67	0.295
COR-L 105	1.08	0.856	0.984	1.06	0.414	0.283	0.209	0.181	0.822	0.676	0.769	0.796	0.419	0.309	0.403	0.345	1.08	0.957	0.861	0.692
RERF-LC-KJ	0.868	0.861	0.82	0.77	0.802	0.811	0.687	0.451	0.651	0.741	0.603	0.62	0.538	0.529	0.461	0.364	0.784	0.712	0.697	0.574
NCI-H1793	0.786	0.779	0.834	0.578	0.361	0.39	0.351	0.243	0.818	0.773	0.636	0.478	0.349	0.345	0.302	0.284	0.729	0.516	0.566	0.307
CAL-12T	1.07	0.962	1.15	1.19	0.352	0.3	0.141	0.0923	0.672	0.8	0.748	0.768	0.289	0.304	0.317	0.327	1.32	1.12	1.19	0.883
NCI-H1993	0.761	0.773	0.665	0.57	0.508	0.467	0.483	0.58	0.765	0.962	0.611	0.504	0.611	0.542	0.541	0.525	0.656	0.712	0.663	0.625
